“And” between values parts separate entries of the source, which are not always exact repeats. Equal values may be shown once. Read-outs that look alike come from different tables or passages of the source.
How the values were obtained:
[1] = Total and unbound QST in tumor and contralateral brain, short-term treatment, orthotopic GB126 PDX; format: in vivo
Experimental: To establish the PK-PD correlation and efficacy in an orthotopic patient-derived xenograft (PDX) model of GBM, we implanted GB126 cells in the brains of athymic nude mice and began treatment once the tumors started growing exponentially. Tumor-bearing mice were treated with QST (10 mg/kg), with or without IR, on a MWF schedule (Figure 7A). As described above, IR was delivered locally to the brain in 2-Gy fractions 2 hours after being dosed with vehicle solution or QST, for a cumulative delivery of 6 Gy. To assess acute PD effects and drug levels after short-term QST treatment (1 week, 3 doses total), 10 mice from each experimental cohort were sacrificed 3 hours after receiving the third dose of vehicle solution or QST (Figure 7A). Plasma, tumors, and brain tissue contralateral to the tumors were collected and processed for PK and PD analyses. […] To assess PD modulation, we homogenized brain tumors to obtain whole-tissue protein lysates from each mouse and quantified changes in histone H3 acetylation levels using immunoblotting.
QST concentrations in specimens were measured using reverse-phase LC on the AB SCIEX QTRAP6500+ LC-MS/MS system by operating electrospray in the positive ion mode. For liquid chromatographic separation, gradient elution was performed using a Phenomenex Kinetex F5 100 Å column (100 × 2.1 mm, 2.6 μm). The initial composition of the mobile phase was 70% phase A (0.1% formic acid in water) and 30% phase B (0.1% formic acid in 1:1 acetonitrile/methanol) with a 0.35 mL/min flow rate. […] The total run time was 3.5 minutes. The internal standard used in this study was D8-infigratinib. […] LC-MS/MS analysis was performed using an Analyst 1.7 Chromatographic Data System. See Supplemental Methods for detailed PK experiments.
Gy on MWF for a total of 6 Gy in the first week of treatment. Treatment groups included vehicle (50% PEG-3000), QST (10 mg/kg) alone, 6 Gy whole-brain IR treatment with vehicle, and 6 Gy whole-brain IR treatment with 10 mg/kg QST. QST was administered to mice through intraperitoneal injections two hours prior to whole-brain radiation treatment. […]
For short-term PK-PD correlation studies, tumor-bearing mice were randomized into groups and underwent a single week of treatment with QST (10 mg/kg) on MWF. For mice receiving IR treatment with or without QST, mice were treated with 2 Gy on MWF for a total of 6 Gy. QST was administered to mice through intraperitoneal injections 2 hours before whole-brain radiation treatment. On the third and last day of treatment, mice were sacrificed and processed for PD and PK analyses 3 hours after administration of QST or vehicle. For PD analyses, the mice were euthanized with isoflurane, and the tumors were dissected out of the brain and flash-frozen for subsequent analysis through Western blotting and RNA sequencing.
Tissue from the hemisphere contralateral to the tumor was also collected as a normal brain/nontumor reference sample. For PK analyses, the mice were anesthetized with isoflurane, and at least 300 μL of blood was drawn from the right ventricle of the heart. The blood was collected in tubes containing 10 μL of 0.1 M KOH in EDTA to prevent blood coagulation. Blood samples were immediately centrifuged at 3000 rpm for 10 minutes at 4 °C to allow separation of plasma. After collection of the blood, the tumor was dissected out of the brain and flash -frozen.

[2] = Stability in mouse plasma at 37°C; format: in vitro ADME; conditions: for [QST] mouse plasma at 37C, raw response / [QST], % of control: replicates; for [QST], % of control: mouse plasma
Experimental: Hydroxamic acid–based compounds have been reported to display poor stability and high plasma clearance due to the presence of arylesterases and carboxylesterases in rodent blood ([34]). Therefore, we measured the stability of QST in mouse plasma and brain to determine whether drug degradation occurred during our sample preparations and equilibrium dialyses for the determination of unbound drug level (performed at 37°C). […] QST degradation was also observed in mouse brain homogenate (Figure 6B). However, perfusion of mice before brain collection prevented rapid drug degradation in the brain matrix. […] Degradation of QST can also be constrained if plasma and brain samples are processed at 4°C (Supplemental Figure 4A). All subsequent sample preparations were therefore performed on ice-cold baths to avoid degradation of QST in our PK analyses. […] The observed stability is probably due to the absence of esterases in human matrices, which are responsible for degradation of QST ([34]). Because we employed QST in several in vitro studies (Figures 1–4), the stability of the molecule was also tested in the cell media used to culture GSCs (neurobasal medium; see Methods).
Stability Study in Mouse Plasma, Mouse Brain, Human Plasma, Human Brain, and Neural […]
The stability of QST was determined in BALB/c mouse plasma, male nude athymic perfused and nonperfused mouse brain homogenate (1:9 w/v of PBS; pH 7.4), human brain (obtained from VRL Eurofins) homogenate (1:4 w/v of PBS; pH 7.4), pooled human plasma (Innovative Research), and neurobasal media. QST stock solutions (1 mM) were prepared in acetonitrile, subsequently diluted in a 40% methanol mixture, and added t o the matrices to make […]
[…] Then 50 or 30 µL of either plasma or brain homogenate containing QST were aliquoted into 1.5-mL microcentrifuge tubes (Eppendorf) and were incubated at either 4 °C or 37 °C for 0, 2, 4, 6, 12, or 24 hours (n = 3 at each time point).
The stability of QST in mouse plasma was also tested at 0, 2, 8, 16, or 24 hours (n = 3 at each time point) in the presence of esterase inhibitors: 0.25 mM BNPP, 1mM dithiobis(2-nitrobenzoic acid) (DTNB), or 1.25 mM phenylmethylsulfonyl fluoride (PMSF). Plasma and brain homogenate samples were stored at −80 °C until LC-MS/MS analysis. […]

[3] = cited from earlier work
[4] = acute treated tumors, individual mice

## Cn1cc(CNCC2CCN(c3ncc(C(=O)NO)cn3)CC2)c2ccccc21 [QST, quisinostat]
[1]; acute treated tumor-bearing mice, individual mice
  UNBOUND [QST], Brain: 1.55 nM and 0.424 nM and 0.84 nM and 2.425 nM and 1.0975 nM
[1]; acute treated tumor-bearing mice, individual mice, read-out: TOTAL [QST], brain
  concentration at 3 h: 31 nM and 8.48 nM and 48.5 nM and 21.95 nM
[1]; [4]
  TOTAL [QST], tumor: 634.32 nM and 1029.61 nM and 23.89 nM and 646.61 nM and 605.65 nM
  UNBOUND [QST], Tumor: 31.716 nM and 51.4805 nM and 1.1945 nM and 32.3305 nM and 30.2825 nM
[1]; athymic nude, mouse, brain tissue contralateral to the tumor, intraperitoneal, 10 mg/kg, acute treated tumor-bearing mice, mean, read-out: Total QST, brain, mean
  concentration at 3 h: 25.4 nM
[1]; athymic nude, mouse, brain tissue contralateral to the tumor, intraperitoneal, 10 mg/kg, acute treated tumor-bearing mice, mean, read-out: Unbound QST, brain, mean
  concentration at 3 h: 1.27 nM
[1]; athymic nude, mouse, brain tumor (orthotopic GB126 xenograft), intraperitoneal, 10 mg/kg, acute treated tumors, mean, read-out: Total QST, tumor, mean
  concentration at 3 h: 588 nM
[1]; athymic nude, mouse, brain tumor (orthotopic GB126 xenograft), intraperitoneal, 10 mg/kg, acute treated tumors, mean, read-out: Unbound QST, tumor, mean
  concentration at 3 h: 29.4 nM
[1]; athymic nude, mouse, in vivo, 10 mg/kg, acute treated tumor-bearing mice, individual mice, read-out: TOTAL [QST], brain
  concentration at 3 h: 16.8 nM
[2]; 500 nM, Time 0
  [QST] mouse plasma at 37C, raw response, Average: 1.911
  [QST] mouse plasma at 37C, raw response: 1.823 and 1.9096 and 2.002
[2]; 500 nM, Time 1
  [QST] mouse plasma at 37C, raw response, Average: 0.7582
  [QST] mouse plasma at 37C, raw response: 0.7296 and 0.7817 and 0.7634
[2]; 500 nM, Time 2
  [QST] mouse plasma at 37C, raw response, Average: 0.2892
  [QST] mouse plasma at 37C, raw response: 0.2668 and 0.314 and 0.2868
[2]; 500 nM, Time 4
  [QST] mouse plasma at 37C, raw response, Average: 0.02578
[2]; 500 nM, Time 8
  [QST] mouse plasma at 37C, raw response, Average: 0.00189
  [QST] mouse plasma at 37C, raw response: 0.00167 and 0.04867 and 0.00211
[2]; BALB/c, mouse, plasma, 37°C, 8-hour incubation
  half-life: ~1 h
[2]; Time 4
  [QST] mouse plasma at 37C, raw response: 0.02689 and 0.02585 and 0.0246
[2]; 10 nM, Time 6 hrs
  [QST], % of control: 2.9% and 3.1% (2×)
[2]; 10 nM, Time 12 hrs
  [QST], % of control: 2.6% and 2% and 2.1%
[2]; 100 nM, Time 6 hrs
  [QST], % of control: 1.4% (2×) and 1.3%
[2]; 100 nM, Time 12 hrs
  [QST], % of control: 0.1% (2×) and 2.5%
[3]; patients, given 3 times weekly
  maximum-tolerated dose: 12 mg
[3]; phase I trials
  hematologic toxicities (grade 1 and 2), share of patients: < 5%

— paper PMC10721329, “Quisinostat is a brain-penetrant radiosensitizer in glioblastoma” (JCI Insight, 2023)
